Laboratory results published in publication PMC6277767, “Broad and Region-Specific Impacts of the Synthetic Cannabinoid CP 55,940 in Adolescent and Adult Female Mouse Brains” (Frontiers in Molecular Neuroscience, 2018).

Tested on: CD1 female mouse brain lipidome
Assay: Brain-region lipid levels (HPLC/MS/MS lipidomics) 2 h after single i.p. 3 mg/kg CP 55,940 vs vehicle
Assay type: in vivo
Settings: cerebellum
Method: The Bloomington Institutional Animal Care and Use Committee of Indiana University reviewed and approved the animal procedures. Female mice from the CD1 strain were utilized to match our study examining THC’s effects on the brain lipidome ([Leishman et al., 2018]). Mice were given a single i.p. injection of either 3 mg/kg CP or 1:1:18 cremophor:ethanol:saline vehicle (please refer to the section “3 mg/kg CP Is Relevant for Synthetic Cannabinoid Abuse and Has Stronger Effects on the Female Mouse Brain Lipidome During Adolescence” for a justification of dose and use of female mice). Three different age groups were given injections: PND 35 and PND 50 adolescents, and adult mice (PND 113). At least eight mice in each age group received CP and at least eight received vehicle. Matching the THC study time course ([Leishman et al., 2018]), mice were sacrificed via rapid decapitation 2 h after injection. Brains were immediately removed and flash-frozen in liquid nitrogen, and then stored at -80°C until dissections were performed. Brains were dissected on an ice-cold dissection plate into the following regions: STR, HIPP, CER, THAL, CTX, HYP, MID, and STEM. These abbreviations for these brain areas will be used exclusively when discussing the results generated by these specific dissections. Each dissected area was immediately placed in liquid nitrogen and then stored at -80°C until used for lipid extraction.
Tissue extracts were performed as previously described ([Bradshaw et al., 2006]; [Stuart et al., 2013]; [Raboune et al., 2014]; [Leishman et al., 2016a],[b], [2017], [2018]). First, samples were shock frozen in liquid nitrogen, weighed, and transferred to a centrifuge tube. The mass of the largest sample was multiplied by 50 to determine how many milliliters of HPLC-grade methanol (Fisher, Fair Lawn, NJ, United States) to add. Then, samples were spiked with 500 pmol deuterium-labeled NAGly (d8NAGly; Cayman Chemical, Ann Arbor, MI, United States). Samples were placed on ice in darkness for 2 h then individually homogenized and centrifuged at 19,000 × g for 20 min at 20°C. Supernatants were diluted with HPLC water (purified in house) to make a solution of 75% water, 25% supernatant. Lipids were partially purified on C18 solid phase extraction columns (Agilent, Palo Alto, CA, United States). A series of four elutions with 1.5 mL of 60%, 75%, 85%, and 100% methanol were collected ([Stuart et al., 2013]; [Leishman et al., 2016a],[b], [2018]).
As previously described ([Bradshaw et al., 2006]; [Tan et al., 2006]; [Smoum et al., 2010]; [Stuart et al., 2013]; [Tortoriello et al., 2013]; [Raboune et al., 2014]; [Leishman et al., 2016a],[b], [2017], [2018]), samples were analyzed using an Applied Biosystems API 3000 triple quadrupole mass spectrometer with electrospray ionization (Foster City, CA, United States). Using an Agilent XDB-C18 reversed phase analytical column and optimized mobile phase gradients, 20 μL from each elution were chromatographed. Two Shimadzu 10ADvp pumps (Columbia, MD, United States) provided the pressure for gradient elution. Mobile phase A: 20% methanol, 80% water (v/v) and 1 mM ammonium acetate (Sigma, St. Louis, MO, United States). Mobile phase B: 100% methanol, 1 mM ammonium acetate. Every method run began with 0% mobile phase B, reached 100% mobile phase B flowing at 0.2 mL/min, and gradually returned to 0% mobile phase B.
This screening library will be referred to as the lipidome when discussing data from this study. HPLC/MS/MS data were analyzed using Analyst software (Applied Biosystems) ([Bradshaw et al., 2006]; [Tan et al., 2006]; [Stuart et al., 2013]; [Tortoriello et al., 2013]; [Raboune et al., 2014]; [Leishman et al., 2016a],[b], [2017], [2018]). Chromatograms (Supplementary Figure 3) were generated by determining the retention time of analytes from the analytical column with a [M-1] or [M+1] parent peak and a fragmentation peak corresponding to the programmed values. […]

[1] = WT adult female mice, 3mg/kg CP 55,940

Question: Which “N-palmitoyl serine level, Mean” value [1] does the source give for `CCCCCCC(C)(C)c1ccc([C@@H]2C[C@H](O)CC[C@H]2CCCO)c(O)c1` [CP 55,940] here?
Answer: 5.77E-12

Question: And the “N-palmitoyl tyrosine level, Mean” value [1]?
Answer: 9.82E-13

Question: What about the “N-palmitoyl valine level, Mean” value [1] of the same compound?
Answer: 1.08E-13

Question: What about the “N-stearoyl GABA level, Mean” value [1] of the same compound?
Answer: 1.12E-11

Question: And the “N-stearoyl alanine level, Mean” value [1]?
Answer: 5.69E-12

Question: What about the “N-stearoyl ethanolamine level, Mean” value [1] of the same compound?
Answer: 1.6E-11

Question: What about the “N-stearoyl glycine level, Mean” value [1] of the same compound?
Answer: 1.62E-12

Question: What about the “N-stearoyl leucine level, Mean” value [1] of the same compound?
Answer: 1.18E-12

Question: What about the “N-stearoyl methionine level, Mean” value [1] of the same compound?
Answer: 3.32E-13

Question: And the “N-stearoyl phenylalanine level, Mean” value [1]?
Answer: 2.74E-13

Question: What about the “N-stearoyl serine level, Mean” value [1] of the same compound?
Answer: 1.52E-11

Question: What about the “Oleic acid level, Mean” value [1] of the same compound?
Answer: 6.36E-10

Question: And the “PGE2 level, Mean” value [1]?
Answer: 2.14E-10

Question: What about the “PhosphoLEA level, Mean” value [1] of the same compound?
Answer: 4.64E-12

Question: And the “2-arachidonoyl glycerol: Direction (relative to Veh)” value (adult, 3 mg/kg CP 55,940)?
Answer: ↓

Question: And the “2-arachidonoyl glycerol: Magnitude (x Veh level)” value (adult, 3 mg/kg CP 55,940)?
Answer: 0.81 x Veh level

Question: What about the “2-linoleoyl glycerol: Direction (relative to Veh)” value (adult, 3 mg/kg CP 55,940) of the same compound?
Answer: ↓

Question: What about the “2-linoleoyl glycerol: Magnitude (x Veh level)” value (adult, 3 mg/kg CP 55,940) of the same compound?
Answer: 0.66 x Veh level

Question: What about the “2-oleoyl glycerol: Direction (relative to Veh)” value (adult, 3 mg/kg CP 55,940) of the same compound?
Answer: ↓

Question: What about the “2-oleoyl glycerol: Magnitude (x Veh level)” value (adult, 3 mg/kg CP 55,940) of the same compound?
Answer: 0.74 x Veh level

Question: What about the “6-ketoPGF1α: Direction (relative to Veh)” value (adult, 3 mg/kg CP 55,940) of the same compound?
Answer: ↓

Question: What about the “6-ketoPGF1α: Magnitude (x Veh level)” value (adult, 3 mg/kg CP 55,940) of the same compound?
Answer: 0.68 x Veh level

Question: What about the “Arachidonic acid: Direction (relative to Veh)” value (adult, 3 mg/kg CP 55,940) of the same compound?
Answer: ↓

Question: And the “Arachidonic acid: Magnitude (x Veh level)” value (adult, 3 mg/kg CP 55,940)?
Answer: 0.67 x Veh level

Question: What about the “Linoleic acid: Direction (relative to Veh)” value (adult, 3 mg/kg CP 55,940) of the same compound?
Answer: ↓

Question: And the “Linoleic acid: Magnitude (x Veh level)” value (adult, 3 mg/kg CP 55,940)?
Answer: 0.63 x Veh level

Question: And the “N-arachidonoyl GABA: Direction (relative to Veh)” value (adult, 3 mg/kg CP 55,940)?
Answer: ↓

Question: And the “N-arachidonoyl GABA: Magnitude (x Veh level)” value (adult, 3 mg/kg CP 55,940)?
Answer: 0.65 x Veh level

Question: What about the “N-arachidonoyl ethanolamine: Direction (relative to Veh)” value (adult, 3 mg/kg CP 55,940) of the same compound?
Answer: ↓

Question: What about the “N-arachidonoyl ethanolamine: Magnitude (x Veh level)” value (adult, 3 mg/kg CP 55,940) of the same compound?
Answer: 0.63 x Veh level

Question: What about the “N-arachidonoyl phenylalanine: Direction (relative to Veh)” value (adult, 3 mg/kg CP 55,940) of the same compound?
Answer: ↓

Question: And the “N-arachidonoyl phenylalanine: Magnitude (x Veh level)” value (adult, 3 mg/kg CP 55,940)?
Answer: 0.41 x Veh level

Question: What about the “N-arachidonoyl taurine: Direction (relative to Veh)” value (adult, 3 mg/kg CP 55,940) of the same compound?
Answer: ↓

Question: What about the “N-arachidonoyl taurine: Magnitude (x Veh level)” value (adult, 3 mg/kg CP 55,940) of the same compound?
Answer: 0.77 x Veh level

Question: What about the “N-docosahexaenoyl GABA: Direction (relative to Veh)” value (adult, 3 mg/kg CP 55,940) of the same compound?
Answer: ↓

Question: What about the “N-docosahexaenoyl GABA: Magnitude (x Veh level)” value (adult, 3 mg/kg CP 55,940) of the same compound?
Answer: 0.83 x Veh level

Question: And the “N-docosahexaenoyl ethanolamine: Direction (relative to Veh)” value (adult, 3 mg/kg CP 55,940)?
Answer: ↓

Question: What about the “N-docosahexaenoyl ethanolamine: Magnitude (x Veh level)” value (adult, 3 mg/kg CP 55,940) of the same compound?
Answer: 0.73 x Veh level

Question: What about the “N-linoleoyl GABA: Direction (relative to Veh)” value (adult, 3 mg/kg CP 55,940) of the same compound?
Answer: ↓

Question: And the “N-linoleoyl GABA: Magnitude (x Veh level)” value (adult, 3 mg/kg CP 55,940)?
Answer: 0.83 x Veh level

Question: What about the “N-linoleoyl ethanolamine: Direction (relative to Veh)” value (adult, 3 mg/kg CP 55,940) of the same compound?
Answer: ↓

Question: And the “N-linoleoyl ethanolamine: Magnitude (x Veh level)” value (adult, 3 mg/kg CP 55,940)?
Answer: 0.64 x Veh level

Question: What about the “N-oleoyl serine: Direction (relative to Veh)” value (adult, 3 mg/kg CP 55,940) of the same compound?
Answer: ↓

Question: What about the “N-oleoyl serine: Magnitude (x Veh level)” value (adult, 3 mg/kg CP 55,940) of the same compound?
Answer: 0.72 x Veh level

Question: What about the “N-oleoyl valine: Direction (relative to Veh)” value (adult, 3 mg/kg CP 55,940) of the same compound?
Answer: ↑

Question: And the “N-oleoyl valine: Magnitude (x Veh level)” value (adult, 3 mg/kg CP 55,940)?
Answer: 2.05 x Veh level

Question: And the “N-palmitoyl tyrosine: Direction (relative to Veh)” value (adult, 3 mg/kg CP 55,940)?
Answer: ↓

Question: What about the “N-palmitoyl tyrosine: Magnitude (x Veh level)” value (adult, 3 mg/kg CP 55,940) of the same compound?
Answer: 0.74 x Veh level

Question: And the “Oleic acid: Direction (relative to Veh)” value (adult, 3 mg/kg CP 55,940)?
Answer: ↓

Question: What about the “Oleic acid: Magnitude (x Veh level)” value (adult, 3 mg/kg CP 55,940) of the same compound?
Answer: 0.63 x Veh level

Question: What about the “PGE2: Direction (relative to Veh)” value (adult, 3 mg/kg CP 55,940) of the same compound?
Answer: ↓
